Measurements from patent US8686150B2 (Sanofi, priority 2011, dated 2014).

Biological target: T1, human full-length recombinant PKC βII (Homo sapiens, UniProt P05771)
T1 construct: Active human full-length recombinant PKC βII; purchased Invitrogen GmbH, Darmstadt, Germany
Assay: Determination of PKC βII inhibition (Caliper mobility-shift kinase assay, Fluorescein-RFARKGSLRQKNV peptide substrate)
Assay type: biochemical
Conditions: example compounds at a final concentration of 1.14 μM (±0.15 μM)
How it was run: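 Full-length PKC βII (30 ng/ml in pre-dilution) with PS/DAG/Ca2+ activators, pH 7.4; fluorescein peptide and ATP at 3 μM and 120 μM before mixing. Reaction ran 60 min at 32 °C, was EDTA-stopped, and was read by mobility shift. % inhibition came from product/(substrate+product) peak heights, tested at 1.14 μM final.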

T1 sequence (P05771 1-673 isoform P05771-2): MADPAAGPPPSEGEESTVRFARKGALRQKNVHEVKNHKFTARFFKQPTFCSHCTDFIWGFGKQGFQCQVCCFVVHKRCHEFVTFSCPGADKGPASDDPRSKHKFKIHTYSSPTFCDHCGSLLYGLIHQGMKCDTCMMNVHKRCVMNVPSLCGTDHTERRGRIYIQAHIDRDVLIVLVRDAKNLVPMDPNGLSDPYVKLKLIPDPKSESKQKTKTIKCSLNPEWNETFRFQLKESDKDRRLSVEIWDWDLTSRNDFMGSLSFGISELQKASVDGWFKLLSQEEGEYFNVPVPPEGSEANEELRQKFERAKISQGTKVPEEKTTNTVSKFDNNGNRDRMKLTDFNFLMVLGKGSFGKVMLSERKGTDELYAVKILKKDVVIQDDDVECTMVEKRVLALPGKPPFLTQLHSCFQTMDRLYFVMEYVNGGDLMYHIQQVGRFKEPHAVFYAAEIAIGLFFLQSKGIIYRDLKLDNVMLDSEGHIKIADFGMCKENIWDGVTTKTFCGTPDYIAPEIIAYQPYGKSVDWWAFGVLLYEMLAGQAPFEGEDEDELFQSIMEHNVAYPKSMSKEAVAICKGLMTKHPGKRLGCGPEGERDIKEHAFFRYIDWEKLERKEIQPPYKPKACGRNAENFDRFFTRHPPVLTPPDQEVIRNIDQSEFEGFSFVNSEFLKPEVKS

## Cc1n[nH]c2nc(-c3ccc(O)cc3F)cc(C(=O)N3CCNCC34CC4)c12 [Example 64, (4,7-Diaza-spiro[2.5]oct-4-yl)-[6-(2-fluoro-4-hydroxy-phenyl)-3-methyl-1H-pyrazolo[3,4-b]pyridin-4-yl]-methanone]
  inhibition at 1.14 µM: 98%

## Cc1n[nH]c2nc(-c3ccc(O)cc3)cc(C(=O)N[C@@H]3CN4CCC3CC4)c12 [Example 200]
  % Inhibition: 70%

## CCc1n[nH]c2nc(-c3ccc(O)cc3)cc(C(=O)NCC3CCC(=O)N3)c12 (stereo not drawn) [Example 186, 3-Ethyl-6-(4-hydroxy-phenyl)-1H-pyrazolo[3,4-b]pyridine-4-carboxylic acid (5-oxo-pyrrolidin-2-ylmethyl)-amide]
  inhibition at 1.14 µM: 33%

## Cc1n[nH]c2nc(-c3ccc(O)cc3)cc(C(=O)NC3CNC3)c12 [Example 248, 6-(4-Hydroxy-phenyl)-3-methyl-1H-pyrazolo[3,4-b]pyridine-4-carboxylic acid azetidin-3-ylamide]
  inhibition at 1.14 µM: 83%

## Cc1n[nH]c2nc(-c3cc(F)c(O)c(F)c3)cc(C(=O)N3CCNC[C@@H]3C)c12 [Example 16, [6-(3,5-Difluoro-4-hydroxy-phenyl)-3-methyl-1H-pyrazolo[3,4-b]pyridin-4-yl]-((S)-2-methyl-piperazin-1-yl)-methanone]
  inhibition at 1.14 µM: 69%

## CCC1(C)CNC(C)(C)CN1C(=O)c1cc(-c2ccc(O)cc2F)nc2[nH]nc(C)c12 (stereo not drawn) [Example 449, (2-Ethyl-2,5,5-trimethyl-piperazin-1-yl)-[6-(2-fluoro-4-hydroxy-phenyl)-3-methyl-1H-pyrazolo[3,4-b]pyridin-4-yl]-methanone]
  inhibition at 1.14 µM: 99%

## O=C(c1cc(-c2ccc(O)cc2)nc2[nH]nc(C(F)(F)F)c12)N1CC2(CCNCC2)C1 [Example 403, (2,7-Diaza-spiro[3.5]non-2-yl)-[6-(4-hydroxy-phenyl)-3-trifluoromethyl-1H-pyrazolo[3,4-b]pyridin-4-yl]-methanone]
  inhibition at 1.14 µM: 55%

## CCCC1(N)CCN(C(=O)c2cc(-c3ccc(O)cc3)nc3[nH]nc(C)c23)CC1 [Example 46, (4-Amino-4-propyl-piperidin-1-yl)-[6-(4-hydroxy-phenyl)-3-methyl-1H-pyrazolo[3,4-b]pyridin-4-yl]-methanone]
  inhibition at 1.14 µM: 76%

## Cc1n[nH]c2nc(-c3ccc(O)cc3)cc(C(=O)N3C[C@H](C)NC[C@H]3C)c12 [Example 81, ((2R,5S)-2,5-Dimethyl-piperazin-1-yl)-[6-(4-hydroxy-phenyl)-3-methyl-1H-pyrazolo[3,4-b]pyridin-4-yl]-methanone]
  % Inhibition: 76%

## Cc1n[nH]c2nc(-c3ccc(O)cc3)cc(C(=O)NC34CNCC3C4)c12 (stereo in doubt) [Example 205, 6-(4-Hydroxy-phenyl)-3-methyl-1H-pyrazolo[3,4-b]pyridine-4-carboxylic acid [(R)-3-azabicyclo[3.1.0]hexan-1-yl]-amide]
  inhibition at 1.14 µM: 92%

## Cc1n[nH]c2nc(-c3ccc(O)cc3)cc(C(=O)N3C[C@@H](C)NC[C@H]3C)c12 [Example 83, ((2R,5R)-2,5-Dimethyl-piperazin-1-yl)-[6-(4-hydroxy-phenyl)-3-methyl-1H-pyrazolo[3,4-b]pyridin-4-yl]-methanone]
  inhibition at 1.14 µM: 104%

## Cc1n[nH]c2nc(-c3ccc(O)cc3)cc(C(=O)N3C[C@@H](C)NC[C@@H]3C)c12 [Example 112, ((2S,5R)-2,5-Dimethyl-piperazin-1-yl)-[6-(4-hydroxy-phenyl)-3-methyl-1H-pyrazolo[3,4-b]pyridin-4-yl]-methanone]
  inhibition at 1.14 µM: 92%

## CCN1CCCC(NC(=O)c2cc(-c3ccc(O)c(F)c3)nc3[nH]nc(C)c23)C1 (stereo not drawn) [Example 332, 6-(3-Fluoro-4-hydroxy-phenyl)-3-methyl-1H-pyrazolo[3,4-b]pyridine-4-carboxylic acid (1-ethyl-piperidin-3-yl)-amide]
  inhibition at 1.14 µM: 63%

## CN[C@H]1CN(C(=O)c2cc(-c3ccc(O)c(F)c3)nc3[nH]nc(C)c23)CC[C@H]1C (racemic) [Example 312, [6-(3-Fluoro-4-hydroxy-phenyl)-3-methyl-1H-pyrazolo[3,4-b]pyridin-4-yl]-(cis-4-methyl-3-methylamino-piperidin-1-yl)-methanone]
  inhibition at 1.14 µM: 54%

## Cc1n[nH]c2nc(-c3ccc(O)c(F)c3)cc(C(=O)N3CCCC4(CNCCO4)C3)c12 (stereo not drawn) [Example 345, [6-(3-Fluoro-4-hydroxy-phenyl)-3-methyl-1H-pyrazolo[3,4-b]pyridin-4-yl]-(1-oxa-4,8-diaza-spiro[5.5]undec-8-yl)-methanone]
  inhibition at 1.14 µM: 58%

## Cc1cc(O)ccc1-c1cc(C(=O)N2CCNC[C@@H]2C)c2c(C)n[nH]c2n1 [Example 17, [6-(4-Hydroxy-2-methyl-phenyl)-3-methyl-1H-pyrazolo[3,4-b]pyridin-4-yl]-((S)-2-methyl-piperazin-1-yl)-methanone]
  inhibition at 1.14 µM: 95%

## Cc1n[nH]c2nc(-c3ccc(O)cc3)cc(C(=O)N3CC(=O)N4CCCCC4C3)c12 (stereo not drawn) [Example 266, 2-[6-(4-Hydroxy-phenyl)-3-methyl-1H-pyrazolo[3,4-b]pyridine-4-carbonyl]-octahydro-pyrido[1,2-a]pyrazin-4-one]
  inhibition at 1.14 µM: 39%

## Cc1n[nH]c2nc(-c3ccc(O)cc3)cc(C(=O)N(C)CCNC(C)(C)C)c12 [Example 40, 6-(4-Hydroxy-phenyl)-3-methyl-1H-pyrazolo[3,4-b]pyridine-4-carboxylic acid (2-tert-butylamino-ethyl)-methyl-amide]
  inhibition at 1.14 µM: 38%

## CCC[C@H]1CN(C(=O)c2cc(-c3ccc(O)cc3)nc3[nH]nc(C)c23)CCN1 [Example 68, [6-(4-Hydroxy-phenyl)-3-methyl-1H-pyrazolo[3,4-b]pyridin-4-yl]-((S)-3-propyl-piperazin-1-yl)-methanone]
  inhibition at 1.14 µM: 88%

## Cc1n[nH]c2nc(-c3ccc(O)cc3)cc(C(=O)N3CCN(C(C)C)CC3)c12 [Example 36, [6-(4-Hydroxy-phenyl)-3-methyl-1H-pyrazolo[3,4-b]pyridin-4-yl]-(4-isopropyl-piperazin-1-yl)-methanone]
  inhibition at 1.14 µM: 40%

## Cc1n[nH]c2nc(-c3ccc(O)c(F)c3)cc(C(=O)N3CCNC4CS(=O)(=O)CC43)c12 (stereo not drawn) [Example 296, (6,6-Dioxo-octahydro-6lambda6-thieno[3,4-b]pyrazin-1-yl)-[6-(3-fluoro-4-hydroxy-phenyl)-3-methyl-1H-pyrazolo[3,4-b]pyridin-4-yl]-methanone]
  inhibition at 1.14 µM: 32%

## CNCCCNC(=O)c1cc(-c2ccc(O)cc2)nc2[nH]nc(C)c12 [Example 244, 6-(4-Hydroxy-phenyl)-3-methyl-1H-pyrazolo[3,4-b]pyridine-4-carboxylic acid (3-methylamino-propyl)-amide]
  inhibition at 1.14 µM: 76%

## Cc1n[nH]c2nc(-c3ccc(O)cc3)cc(C(=O)N3CCCNCC3)c12 [Example 75, [1,4]Diazepan-1-yl-[6-(4-hydroxy-phenyl)-3-methyl-1H-pyrazolo[3,4-b]pyridin-4-yl]-methanone]
  inhibition at 1.14 µM: 89%

## Cc1n[nH]c2nc(-c3ccc(O)cc3)cc(C(=O)N3CCNC[C@H]3Cc3ccccc3)c12 [Example 224, ((R)-2-Benzyl-piperazin-1-yl)-[6-(4-hydroxy-phenyl)-3-methyl-1H-pyrazolo[3,4-b]pyridin-4-yl]-methanone]
  inhibition at 1.14 µM: 92%

## Cc1n[nH]c2nc(-c3ccc(O)cc3)cc(C(=O)N3CCNCC34CCCC4)c12 [Example 108, (6,9-Diaza-spiro[4.5]dec-6-yl)-[6-(4-hydroxy-phenyl)-3-methyl-1H-pyrazolo[3,4-b]pyridin-4-yl]-methanone]
  inhibition at 1.14 µM: 96%

## Cc1cc(O)ccc1-c1cc(C(=O)N2CC(C)(C)NCC2(C)C)c2c(C)n[nH]c2n1 [Example 155, [6-(4-Hydroxy-2-methyl-phenyl)-3-methyl-1H-pyrazolo[3,4-b]pyridin-4-yl]-(2,2,5,5-tetramethyl-piperazin-1-yl)-methanone]
  inhibition at 1.14 µM: 88%

## Cc1n[nH]c2nc(-c3ccc(O)cc3)cc(C(=O)N3CCCC(C)(N)C3)c12 (stereo not drawn) [Example 117, (3-Amino-3-methyl-piperidin-1-yl)-[6-(4-hydroxy-phenyl)-3-methyl-1H-pyrazolo[3,4-b]pyridin-4-yl]-methanone]
  inhibition at 1.14 µM: 89%

## CNC1CCN(C(=O)c2cc(-c3ccc(O)cc3)nc3[nH]nc(C(F)(F)F)c23)C1 (stereo not drawn) [Example 406, [6-(4-Hydroxy-phenyl)-3-trifluoromethyl-1H-pyrazolo[3,4-b]pyridin-4-yl]-(3-methylamino-pyrrolidin-1-yl)-methanone]
  inhibition at 1.14 µM: 47%

## Cc1n[nH]c2nc(-c3ccc(O)cc3)cc(C(=O)NC3CNCC3C)c12 (stereo not drawn) [Example 43, 6-(4-Hydroxy-phenyl)-3-methyl-1H-pyrazolo[3,4-b]pyridine-4-carboxylic acid (4-methyl-pyrrolidin-3-yl)-amide]
  inhibition at 1.14 µM: 81%

## Cc1n[nH]c2nc(-c3ccc(O)cc3)cc(C(=O)N3CCNCC3c3cccs3)c12 (stereo not drawn) [Example 31, [6-(4-Hydroxy-phenyl)-3-methyl-1H-pyrazolo[3,4-b]pyridin-4-yl]-(2-thiophen-2-yl-piperazin-1-yl)-methanone]
  inhibition at 1.14 µM: 99%

## Cc1n[nH]c2nc(-c3ccc(O)cc3)cc(C(=O)NC(CN)c3ccc(F)cc3)c12 (stereo not drawn) [Example 107, 6-(4-Hydroxy-phenyl)-3-methyl-1H-pyrazolo[3,4-b]pyridine-4-carboxylic acid [2-amino-1-(4-fluoro-phenyl)-ethyl]-amide]
  inhibition at 1.14 µM: 83%

## O=C(N[C@H]1CN2CCC1CC2)c1cc(-c2ccc(O)cc2)nc2[nH]nc(C(F)(F)F)c12 [Example 413, 6-(4-Hydroxy-phenyl)-3-trifluoromethyl-1H-pyrazolo[3,4-b]pyridine-4-carboxylic acid [(R)-1-aza-bicyclo[2.2.2]oct-3-yl]-amide]
  inhibition at 1.14 µM: 29%

## CCC1(NC(=O)c2cc(-c3ccc(O)cc3C)nc3[nH]nc(C)c23)CCCNC1 (stereo not drawn) [Example 149, 6-(4-Hydroxy-2-methyl-phenyl)-3-methyl-1H-pyrazolo[3,4-b]pyridine-4-carboxylic acid (3-ethyl-piperidin-3-yl)-amide]
  inhibition at 1.14 µM: 86%
